We go through 17 molecules from PMC10901194, “Boronic acid inhibitors of penicillin-binding protein 1b: serine and lysine labelling agents” (Journal of Enzyme Inhibition and Medicinal Chemistry, 2024).

The term IC50 denotes the point on the concentration scale where inhibition reaches its midpoint. One may read the MIC as the lowest concentration that inhibits growth of the organism.

In brackets after ≈: the same amount, converted by molar mass. Several values for one entry are separate records, joined by “and”; a condition that tells them apart may be missing. Identical values can stand only once. Like-named read-outs stand apart in the source and are kept apart here. Where only a bound is given, the exact number is not on record here.

In test [1] the target is T1, PBP1b (Streptococcus pneumoniae, UniProt Q7CRA4). As to the kind of experiment: PBP1b inhibition, hydrolysis of thioester substrate analogue (residual activity, IC50). The test is classed as biochemical. Here is the method:
The inhibitory activity of 26 compounds was tested in the assay[31] employing a thioester substrate analogue at a concentration of 500 and 50 µM (Table S1).
Residual activities were determined by the ability of a potential inhibitor to hinder the hydrolysis of substrate analogue thioester (2-((benzoyl-D-alanyl)thio)acetic acid) as already described. PBP1b, prepared according to literature[31] (0.8 µM), was incubated with potential inhibitor (final concentration 500 µM) in 10 mM sodium phosphate buffer (pH = 7.0) in the presence of 100 mM D-alanine, 0.01 mg/mL BSA, and 0.01% Triton-X-100 for 60 min at 25 °C. After preincubation, the 5,5′-dithiobis-(2-nitrobenzoic acid) (DTNB) and thioester were added to each well to initiate the reaction and to obtain a final concentration of 1 mM and 5 mM, respectively. The final volume of the reaction was 150 µL. The initial rate of thioester hydrolysis was determined by measuring the absorbance at 412 nm for 30 min using a microtiter 96-well plate and Biotek Synergy H4 Hybrid microplate reader. The same assay was performed in the absence of an inhibitor. […] All experiments were run in triplicate. The ratio of the rate of reaction with inhibitor to the rate of reaction without compound expressed as a percentage gives the (RA [%] = ((vi – b)/(vo – b)) * 100, where b is the blank value for the initial rate of spontaneous hydrolysis of the thioester in the presence of the potential inhibitor and in the absence of PBP1b). The IC50 values were determined by measuring the reaction rates at seven different inhibitor concentrations.

For test [2], the system named is E. coli (ATCC 25922). As to the kind of experiment: Antimicrobial testing, broth microdilution (MIC). The test is classed as cell-based. As to conditions: Escherichia coli, ATCC25922; E. coli ATCC 25922, 20 h at 35 °C. Here is the method:
(§1) Antimicrobial testing was carried out by the broth microdilution method in 96-well plate format following the CLSI guidelines and European Committee for Antimicrobial Susceptibility Testing recommendations. Bacterial suspension of specific bacterial strain equivalent to 0.5 McFarland turbidity standard was diluted with cation-adjusted Mueller Hinton broth to obtain a final inoculum of 10^5 CFU/mL. Compounds dissolved in DMSO and inoculum were mixed together and incubated for 20 h at 35 °C. After incubation the minimal inhibitory concentration (MIC) values were determined by visual inspection as the lowest dilution of compounds showing no turbidity. The MICs were determined against S. aureus (ATCC 29213) and E. coli (ATCC 25922) bacterial strains. Tetracycline was used as a positive control on every assay plate.
In general terms: Broth dilution looks for growth in wells or tubes with falling amounts of substance.

The subject of test [3] is S. aureus (ATCC 29213). Briefly: Antimicrobial testing, broth microdilution (MIC). The test is classed as cell-based. The conditions noted are these: Staphylococcus aureus, ATCC29213; S. aureus ATCC 29213, 20 h at 35 °C. As for the experimental part:
as §1

Test [4] deals with T1, PBP1b. As to the kind of experiment: LC-MS/MS covalent labelling of PBP1b. The class given is binding. As to conditions: 450-fold excess of compound, 45 °C, 2 h. Here is the method: Further experimental study of 2-formylbenzeneboronic acid 29 and 30 was performed to characterise their binding.
The measurements were preformed analogously to those reported in Kollár et al. and Petri et al.[68]^,[69] The protein stock solution (20.0 µL and 37.0 µM) was diluted with buffer solution (20.0 µL; pH 7.0; 20 mM Hepes, 100 mM NaCl, 1 mM EDTA, and 10% glycerol), then the stock solution of the inhibitor (0.66 µL, 500 mM in DMSO) was added. The sample was incubated at 45 °C for 120 min and then subjected to LC-MS/MS measurements. The molecular weights of the conjugates of PBP1b were identified using a Triple TOF 5600+ hybrid Quadrupole-TOF LC/MS/MS system (Sciex, Singapore, Woodlands) equipped with a DuoSpray IonSource coupled with a Shimadzu Prominence LC20 UFLC (Shimadzu, Kyoto, Japan) system consisting of binary pump, an autosampler and a thermostated column compartment.
Data acquisition and processing were performed using Analyst TF software version 1.7.1 (AB Sciex Instruments, Redwood City, CA). Chromatographic separation was achieved on a Merck BIOshell^TM 400 Å Protein C18 (75 mm × 2.1mm, 3.4 µm, 400 Å) HPLC column. Sample was eluted in gradient elution mode using solvent A (0.1% formic acid in water) and solvent B (0.1% formic acid in ACN). […]

[5] abbreviates: 1 h, pH 7, Table S1, 50 µM, 60 min preincubation; read-out: RA%@50µM PBP1b S.pneumoniae, 60 min preincubation.
[6] abbreviates: 1 h, pH 7, Table S1, 500 µM, 60 min preincubation; read-out: RA%@500µM PBP1b S.pneumoniae, 60 min preincubation.
Where [7] appears, read: PBP1b 0.8 µM, 60 min preincubation at 25 °C, thioester substrate; read-out: IC50.
The mark [8] stands for this setting: 1 h, pH 7, residual activity at 500 µM inhibitor, 60 min preincubation; read-out: RA [%] @500 µM.

Regarding `C[C@H]1[C@H](NC(=O)/C(=N\OC(C)(C)C(=O)O)c2csc(N)n2)C(=O)N1S(=O)(=O)O` [Aztreonam, reference compound], in test [1] (1 h, pH 7, read-out: RA [%] @500 µM), the activity at 500 µM stood at 1.4 ± 0.1%. Also, the IC50 in test [1] (IC50, PBP1b 0.8 µM, 60 min preincubation at 25 °C, thioester substrate) is under 0.8 µM.

`CC(NC(=O)c1ccc(B(O)O)cc1)C1CCC(F)(F)CC1` (stereo not shown) [Compound 1]: the activity at 50 µM in test [1] (setting [5]) was 78.8 ± 2.7%. Also, in test [1] (setting [6]), the activity at 500 µM is under 50%. Further, in test [1] (setting [7]), the concentration for half-maximal inhibition (IC50) amounted to 127 ± 14.4 µM. Besides, the MIC in test [2] and in test [3] was over 250 µM throughout.

With `O=C(c1ccn(-c2cccc([N+](=O)[O-])c2)n1)N1CCC(B(O)O)C1` (stereo not shown) [Compound 2], in test [1] (setting [5]), the activity at 50 µM stood at 83.5 ± 0.1%. Besides, in test [1] (setting [6]), the activity at 500 µM was under 50%. Further, in test [1] (setting [7]), the IC50 came out at 206 ± 21.7 µM. The MIC was over 250 µM in test [2] and 125 µM (≈ 41.3 µg/mL) in test [3].

In the case of `Cc1cc(C(=O)N2CCC(B(O)O)C2)ccn1` (stereo not shown) [Compound 3], the activity at 500 µM in test [1] (setting [8]) is 86.3 ± 8.4%.

Turning to `O=C(C1Cc2cccc(F)c2O1)N1CCC(B(O)O)C1` (stereo not shown) [Compound 4], the activity at 500 µM in test [1] (setting [8]) came to 60.9 ± 7.6%.

Take `CCC(=O)Nc1cccc(C(=O)N2CCC(B(O)O)C2)c1` (stereo not shown) [Compound 5]: the activity at 500 µM in test [1] (setting [8]) was found to be 85.7 ± 9.5%.

For the molecule `Cn1cc(C(=O)N2CCC(B(O)O)C2)nn1` (stereo not shown) [Compound 6], the activity at 500 µM in test [1] (setting [8]) stood at 81.1 ± 1.6%.

`Cn1cc(C(=O)NCB(O)O)nn1` [Compound 8]: the half-maximal inhibitory concentration (IC50) in test [1] (setting [7]) was ~213 µM and 213 µM. In addition, the minimum inhibitory concentration (MIC) in test [2] and in test [3] was over 250 µM in each case.

`O=C(NCB(O)O)c1ccccc1F` [Compound 9, reference compound]: the IC50 in test [1] (setting [7]) is 28.2 ± 7.4 µM. Besides, in test [1] (from IC50 accepted as approximation to Ki), the “free energy gain in complex formation (ΔGdc)” value was -6.2 kcal/mol. Moreover, the MIC in test [2] and in test [3] was over 250 µM throughout.

Regarding `CC1(C)OB(C(CC(=O)Nc2ccccc2)NC(=O)c2ccccc2F)OC1(C)C` (stereo not shown) [Compound 17], in test [1] (setting [8]), the activity at 500 µM was 48.1 ± 2%.

Regarding `CC1(C)OB(C(CC(=O)N(Cc2ccccc2)Cc2ccccc2)NC(=O)c2ccccc2F)OC1(C)C` (stereo not shown) [Compound 18], in test [1] (setting [8]), the activity at 500 µM was 66.3 ± 7%.

In the case of `O=C(NC(CC(=O)N(Cc1ccccc1)Cc1ccccc1)B(O)O)c1ccccc1F` (stereo not shown) [Compound 19], the activity at 500 µM in test [1] (setting [8]) turned out to be 68.9 ± 8.2%. Also, the MIC in test [2] was over 250 µM; in test [3], 62.5 µM (≈ 27.1 µg/mL).

In the case of `O=Cc1ccccc1B(O)O` [Compound 29], the “PBP1b inhibition (in words)” value in test [1] is given as “inhibitors of PBP1b”. Also, in test [1], the time-dependent inhibition entry was “No time-dependent inhibition”. Moreover, the IC50 in test [1] (setting [7]) was determined as 119 ± 6 µM. In addition, the minimal inhibitory concentration (MIC) in test [2] and in test [3] was over 250 µM each time. Also, in test [4], the “labelling of PBP1b in MS/MS experiments” value is on record as “single labelling of PBP1b was observed”.

With `O=Cc1cc(C(F)(F)F)ccc1B(O)O` [Compound 30], in test [1], the “PBP1b inhibition (in words)” value is “inhibitors of PBP1b” and the time-dependent inhibition result was “No time-dependent inhibition”. Further, the half-inhibitory concentration (IC50) in test [1] (setting [7]) was 200 ± 15.3 µM. Moreover, the MIC in test [2] is over 250 µM. The same molecule yielded a minimal inhibitory concentration (MIC) in test [3] of over 250 µM. Moreover, the “labelling of PBP1b in MS/MS experiments” value in test [4] was “single labelling of PBP1b was observed”.

Consider `CC(=O)c1ccccc1B(O)O` [Compound 31], for which the “PBP1b inhibition (in words)” value in test [1] was “inactive”. For the same molecule, the activity at 500 µM in test [1] (1 h, pH 7; read-out: RA [%] @500 µM) was 96.7%.

Take `CC1(C)OB(c2ccccc2CNc2ccccc2C=O)OC1(C)C` [Compound 32]: in test [1], the “PBP1b inhibition (in words)” value is given as “does not inhibit PBP1b at 1 mM concentration”. Besides, in test [1] (setting [8]), the activity at 500 µM is 96.6 ± 0.6%.

In the case of `O=Cc1ccccc1NCc1ccccc1B(O)O` [Compound 33], the “PBP1b inhibition (in words)” value in test [1] is listed as “slight activity in the millimolar concentration range”. Also, the activity at 500 µM in test [1] (setting [8]) stood at 56.9 ± 0.8%.
